What all share (format): nucleic-acid assay
Assay [1] has as its system RNA. Description: Binding affinity to (CAG)10 repeat RNA internal loop (unknown origin) by SPR analysis. Background: SPR reads the build-up and loss of mass on a sensor chip optically.
For assay [2], the system named is RNA. Nature of the assay: Binding affinity to 5' (CAG)3 repeat RNA overhang (unknown origin) by SPR analysis. As to conditions: dose 0.063-2 µM.
The subject of assay [3] is RNA. Description: Binding affinity to (CAG)2 repeat RNA hairpin loop (unknown origin) by SPR analysis.
Assay [4] has as its system RNA. Nature of the assay: Binding affinity to 5' (CAG)2 repeat RNA overhang (unknown origin) at 2 uM by SPR analysis.
Assay [5] deals with RNA. Description: Binding affinity to 5' (CAG)3 repeat RNA overhang (unknown origin) at 2 uM by SPR analysis.
For assay [6], the system named is RNA. Nature of the assay: Binding affinity to (CAG)10 repeat RNA (unknown origin) at 20 uM by CSI-TOF MS analysis.
Assay [7] concerns RNA. Description: Binding affinity to 5' (CAG)2 repeat RNA overhang (unknown origin) by SPR analysis. As to conditions: dose 0.063-2 µM.
Assay [8] deals with RNA. Description: Binding affinity to (CAG)2 repeat RNA (unknown origin) at 0.063 to 2 uM by SPR analysis. The conditions noted are these: dose 0.063-2 µM.
Assay [9] has as its system RNA. Nature of the assay: Binding affinity to (CAG)10 repeat RNA (unknown origin) assessed as association constant by SPR analysis.
For assay [10], the system named is RNA. Description: Binding affinity to 3' (CAG) repeat RNA hairpin loop (unknown origin) at 2 uM by SPR analysis.
The test system of assay [11] is RNA. Description: Binding affinity to (CAG)3 repeat RNA hairpin loop (unknown origin) by SPR analysis. The conditions noted are these: dose 0.063-2 µM.
For assay [12], the target named is RNA. Nature of the assay: Binding affinity to (CAG)10 repeat RNA (unknown origin) assessed as dissociation constant by SPR analysis.
Assay [13] relates to RNA. Description: Binding affinity to (CAG)10 repeat RNA (unknown origin) assessed as dissociation rate constant by SPR analysis.
For assay [14], the system named is RNA. Nature of the assay: Binding affinity to 3' (CAG)2 repeat RNA overhang (unknown origin) at 0.063 to 2 uM by SPR analysis. As to conditions: dose 0.063-2 µM.
Assay [15] has as its system RNA. Description: Binding affinity to (CAG)10 repeat RNA (unknown origin) by SPR analysis. The conditions noted are these: dose 1.0 µM.
Assay [16] deals with RNA. Description: Binding affinity to 5' (CAG) repeat RNA hairpin loop (unknown origin) at 2 uM by SPR analysis.
Assay [17] relates to RNA. Description: Binding affinity to (CAG)3 repeat RNA (unknown origin) at 0.063 to 2 uM by SPR analysis. As to conditions: dose 0.063-2 µM.
The subject of assay [18] is RNA. Description: Binding affinity to CAG repeat RNA overhang (unknown origin).
Assay [19] deals with RNA. Nature of the assay: Binding affinity to (CAG)10 repeat RNA (unknown origin) at 2 uM by SPR analysis.
The test system of assay [20] is RNA. Description: Binding affinity to CAG repeat RNA terminal (unknown origin).

Molecules are shown by their SMILES. The source made the active and inactive calls. The rule behind the calls is not given here.

The Kd is the free concentration of one partner at which half of the binding sites on the other are occupied at equilibrium, for simple one-to-one binding.

As to `Cc1ccc2ccc(NC(=O)CCN(CCCCCN(CCC(=O)NCc3ccc4ccc(=O)[nH]c4n3)CCC(=O)Nc3ccc4ccc(C)nc4n3)CCC(=O)NCc3ccc4ccc(=O)[nH]c4n3)nc2n1`, the outcome with RNA [1], in the assay on RNA [6], in the assay with RNA [8], in the assay with RNA [10], in the assay on RNA [14] and with RNA [16] was Active. Besides, the result in the assay with RNA [17] was Active. The Activity result in the assay with RNA [2], in the assay on RNA [7], in the assay with RNA [11] and in the assay with RNA [15] was “Dose-Dependent Effect” in each case. The result in the assay on RNA [3], in the assay on RNA [4] and in the assay with RNA [5] was inactive. The Ka in the assay on RNA [9] is 0.47 10^4/M/s. The Kd on RNA [12] came out at 6.1 µM. The Kdiss in the assay with RNA [13] was 2.9 10^-2/s.
Turning to `Cc1ccc2ccc(NC(=O)CCNCCC(=O)NCc3ccc4ccc(=O)[nH]c4n3)nc2n1`, the outcome in the assay with RNA [18], in the assay on RNA [19] and with RNA [20] was inactive.

These data come from ChEMBL document CHEMBL5550085, “A new small molecule DoNA binding to CAG repeat RNA” (Bioorg Med Chem, 2024).
